Reference: ChEMBL document CHEMBL1629662, “Antimicrobial activity of prulifloxacin tested against a worldwide collection of gastroenteritis-producing pathogens, including those causing traveler's diarrhea” (2009)

Legend:
[1] = Antibacterial activity against Salmonella enterica serovar Choleraesuis assessed as percent susceptible isolates by broth microdilution method; assay type: functional, Salmonella enterica subsp. enterica serovar Choleraesuis
[2] = test system: Salmonella typhimurium; assay: Antibacterial activity against Salmonella enterica serovar Typhimurium by broth microdilution method; assay type: functional, Salmonella enterica subsp. enterica serovar Typhimurium
[3] = test system: Escherichia coli; assay: Antibacterial activity against Escherichia coli by broth microdilution method; assay type: functional
[4] = test system: Aeromonas veronii; assay: Antibacterial activity against Aeromonas veronii by broth microdilution method; assay type: functional
[5] = test system: Campylobacter coli; assay: Antibacterial activity against Campylobacter coli by broth microdilution method; assay type: functional
[6] = test system: Aeromonas sobria; assay: Antibacterial activity against Aeromonas sobria by broth microdilution method; assay type: functional
[7] = test system: Plesiomonas shigelloides; assay: Antibacterial activity against Plesiomonas shigelloides by broth microdilution method; assay type: functional
[8] = test system: Shigella dysenteriae; assay: Antibacterial activity against Shigella dysenteriae assessed as percent susceptible isolates by broth microdilution method; assay type: functional
[9] = test system: Salmonella typhi; assay: Antibacterial activity against Salmonella enterica serovar Typhi assessed as percent susceptible isolates by broth microdilution method; assay type: functional, Salmonella enterica subsp. enterica serovar Typhi
[10] = test system: Aeromonas veronii; assay: Antibacterial activity against Aeromonas veronii assessed as percent susceptible isolates by broth microdilution method; assay type: functional
[11] = test system: Shigella boydii; assay: Antibacterial activity against Shigella boydii by broth microdilution method; assay type: functional
[12] = test system: Aeromonas hydrophila; assay: Antibacterial activity against Aeromonas hydrophila by broth microdilution method; assay type: functional
[13] = test system: Yersinia pseudotuberculosis; assay: Antibacterial activity against Yersinia pseudotuberculosis assessed as percent susceptible isolates by broth microdilution method; assay type: functional
[14] = test system: Aeromonas sobria; assay: Antibacterial activity against Aeromonas sobria assessed as percent susceptible isolates by broth microdilution method; assay type: functional
[15] = test system: Aeromonas veronii; assay: Antibacterial activity against Aeromonas veronii assessed as percent resistant isolates by broth microdilution method; assay type: functional
[16] = test system: Plesiomonas shigelloides; assay: Antibacterial activity against Plesiomonas shigelloides assessed as percent resistant isolates by broth microdilution method; assay type: functional
[17] = test system: Shigella flexneri; assay: Antibacterial activity against Shigella flexneri by broth microdilution method; assay type: functional
[18] = test system: Yersinia enterocolitica; assay: Antibacterial activity against Yersinia enterocolitica assessed as percent susceptible isolates by broth microdilution method; assay type: functional
[19] = test system: Aeromonas sobria; assay: Antibacterial activity against Aeromonas sobria assessed as percent resistant isolates by broth microdilution method; assay type: functional
[20] = test system: Vibrio alginolyticus; assay: Antibacterial activity against Vibrio alginolyticus by broth microdilution method; assay type: functional
[21] = test system: Yersinia pseudotuberculosis; assay: Antibacterial activity against Yersinia pseudotuberculosis by broth microdilution method; assay type: functional
[22] = test system: Aeromonas hydrophila; assay: Antibacterial activity against Aeromonas hydrophila assessed as percent resistant isolates by broth microdilution method; assay type: functional
[23] = test system: Vibrio cholerae; assay: Antibacterial activity against Vibrio cholerae by broth microdilution method; assay type: functional
[24] = test system: Shigella sonnei; assay: Antibacterial activity against Shigella sonnei assessed as percent resistant isolates by broth microdilution method; assay type: functional; details: pooled result: one value given for 4 cell lines, strains, targets or settings
[25] = test system: Vibrio sp.; assay: Antibacterial activity against Vibrio sp. by broth microdilution method; assay type: functional
[26] = Antibacterial activity against Salmonella enterica serovar Heidelberg by broth microdilution method; assay type: functional, Salmonella enterica subsp. enterica serovar Heidelberg
[27] = test system: Escherichia coli; assay: Antibacterial activity against Escherichia coli assessed as percent susceptible isolates by broth microdilution method; assay type: functional
[28] = test system: Shigella sonnei; assay: Antibacterial activity against Shigella sonnei by broth microdilution method; assay type: functional
[29] = test system: Vibrio vulnificus; assay: Antibacterial activity against Vibrio vulnificus by broth microdilution method; assay type: functional
[30] = test system: Yersinia enterocolitica; assay: Antibacterial activity against Yersinia enterocolitica assessed as percent resistant isolates by broth microdilution method; assay type: functional
[31] = test system: Salmonella typhi; assay: Antibacterial activity against Salmonella enterica serovar Typhi by broth microdilution method; assay type: functional, Salmonella enterica subsp. enterica serovar Typhi
[32] = test system: Vibrio parahaemolyticus; assay: Antibacterial activity against Vibrio parahaemolyticus by broth microdilution method; assay type: functional
[33] = test system: Aeromonas hydrophila; assay: Antibacterial activity against Aeromonas hydrophila assessed as percent susceptible isolates by broth microdilution method; assay type: functional
[34] = test system: Yersinia enterocolitica; assay: Antibacterial activity against Yersinia enterocolitica by broth microdilution method; assay type: functional
[35] = test system: Salmonella enteritidis; assay: Antibacterial activity against Salmonella enterica serovar Enteritidis by broth microdilution method; assay type: functional, Salmonella enterica subsp. enterica serovar Enteritidis
[36] = test system: Salmonella paratyphi; assay: Antibacterial activity against Salmonella enterica serovar Paratyphi assessed as percent susceptible isolates by broth microdilution method; assay type: functional, Salmonella enterica subsp. enterica serovar Paratyphi A
[37] = test system: Salmonella paratyphi; assay: Antibacterial activity against Salmonella enterica serovar Paratyphi by broth microdilution method; assay type: functional, Salmonella enterica subsp. enterica serovar Paratyphi A
[38] = test system: Salmonella typhimurium; assay: Antibacterial activity against Salmonella enterica serovar Typhimurium assessed as percent resistant isolates by broth microdilution method; assay type: functional, Salmonella enterica subsp. enterica serovar Typhimurium; details: pooled result: one value given for 8 cell lines, strains, targets or settings
[39] = test system: Salmonella enteritidis; assay: Antibacterial activity against Salmonella enterica serovar Enteritidis assessed as percent susceptible isolates by broth microdilution method; assay type: functional, Salmonella enterica subsp. enterica serovar Enteritidis; details: pooled result: one value given for 5 cell lines, strains, targets or settings
[40] = test system: Vibrio fluvialis; assay: Antibacterial activity against Vibrio fluvialis by broth microdilution method; assay type: functional
[41] = test system: Aeromonas caviae; assay: Antibacterial activity against Aeromonas caviae by broth microdilution method; assay type: functional
[42] = test system: Plesiomonas shigelloides; assay: Antibacterial activity against Plesiomonas shigelloides assessed as percent susceptible isolates by broth microdilution method; assay type: functional
[43] = test system: Aeromonas caviae; assay: Antibacterial activity against Aeromonas caviae assessed as percent susceptible isolates by broth microdilution method; assay type: functional
[44] = test system: Escherichia coli; assay: Antibacterial activity against Escherichia coli assessed as percent resistant isolates by broth microdilution method; assay type: functional
[45] = Antibacterial activity against Salmonella enterica serovar Newport by broth microdilution method; assay type: functional, Salmonella enterica subsp. enterica serovar Newport
[46] = test system: Shigella dysenteriae; assay: Antibacterial activity against Shigella dysenteriae by broth microdilution method; assay type: functional
[47] = test system: Shigella boydii; assay: Antibacterial activity against Shigella boydii assessed as percent susceptible isolates by broth microdilution method; assay type: functional; details: pooled result: one value given for 3 cell lines, strains, targets or settings
[48] = test system: Aeromonas caviae; assay: Antibacterial activity against Aeromonas caviae assessed as percent resistant isolates by broth microdilution method; assay type: functional
[49] = Antibacterial activity against Salmonella enterica serovar Choleraesuis by broth microdilution method; assay type: functional, Salmonella enterica subsp. enterica serovar Choleraesuis
[50] = test system: Campylobacter jejuni; assay: Antibacterial activity against Campylobacter jejuni by broth microdilution method; assay type: functional
[51] = Antibacterial activity against Salmonella enterica serovar Virchow by broth microdilution method; assay type: functional, Salmonella enterica subsp. enterica serovar Virchow

Which Activity [1] does the source give for CCn1cc(C(=O)O)c(=O)c2ccc(C)nc21 [NALIDIXIC ACID] here?
Its Activity is 84.2%.

What about the MIC50 [2] of the same molecule?
Its MIC50 is at most 8 µg/mL.

And the MIC90 [2]?
Its MIC90 is over 32 µg/mL.

And the MIC50 [3]?
The MIC50 was at most 8 µg/mL.

And the MIC90 [3]?
The MIC90 was at most 8 µg/mL.

What about the MIC50 [4] of the same molecule?
The MIC50 was at most 8 µg/mL.

What about the MIC90 [4] of the same molecule?
The MIC90 was over 32 µg/mL.

And the MIC50 [5]?
The MIC50 was at most 8 µg/mL.

What about the MIC90 [5] of the same molecule?
The MIC90 was over 32 µg/mL.

What about the MIC50 [6] of the same molecule?
Its MIC50 is at most 8 µg/mL.

What about the MIC90 [6] of the same molecule?
Its MIC90 is over 32 µg/mL.

And the MIC [7]?
Its MIC is at most 8 µg/mL.

And the MIC50 [7]?
Its MIC50 is at most 8 µg/mL.

And the Activity [8]?
The Activity was 97%.

And the Activity [9]?
The Activity was 84.2%.

And the Activity [10]?
Its Activity is 81.2%.

What about the MIC50 [11] of the same molecule?
Its MIC50 is at most 8 µg/mL.

And the MIC90 [11]?
Its MIC90 is at most 8 µg/mL.

And the MIC50 [12]?
The MIC50 was at most 8 µg/mL.

What about the MIC90 [12] of the same molecule?
The MIC90 was over 32 µg/mL.

And the Activity [13]?
Its Activity is 93.5%.

What about the Activity [14] of the same molecule?
The Activity was 81.2%.

What about the Activity [15] of the same molecule?
The Activity was 18.8%.

What about the Activity [16] of the same molecule?
Its Activity is 0%.

What about the MIC50 [17] of the same molecule?
The MIC50 was at most 8 µg/mL.

What about the MIC90 [17] of the same molecule?
The MIC90 was at most 8 µg/mL.

What about the Activity [18] of the same molecule?
The Activity was 93.5%.

What about the Activity [19] of the same molecule?
The Activity was 18.8%.

And the MIC [20]?
Its MIC is at most 8 µg/mL.

What about the MIC50 [20] of the same molecule?
The MIC50 was at most 8 µg/mL.

And the MIC90 [20]?
The MIC90 was at most 8 µg/mL.

What about the MIC50 [21] of the same molecule?
The MIC50 was at most 8 µg/mL.

What about the MIC90 [21] of the same molecule?
Its MIC90 is at most 8 µg/mL.

What about the Activity [22] of the same molecule?
Its Activity is 18.8%.

And the MIC [23]?
The MIC was at most 8 µg/mL.

What about the MIC50 [23] of the same molecule?
The MIC50 was at most 8 µg/mL.

And the MIC90 [23]?
Its MIC90 is at most 8 µg/mL.

And the Activity [24]?
Its Activity is 3%.

And the MIC [25]?
Its MIC is at most 8 µg/mL.

What about the MIC50 [25] of the same molecule?
The MIC50 was at most 8 µg/mL.

And the MIC90 [25]?
The MIC90 was at most 8 µg/mL.

And the MIC50 [26]?
The MIC50 was at most 8 µg/mL.

What about the MIC90 [26] of the same molecule?
The MIC90 was over 32 µg/mL.

And the Activity [27]?
Its Activity is 95%.

And the MIC50 [28]?
The MIC50 was at most 8 µg/mL.

And the MIC90 [28]?
Its MIC90 is at most 8 µg/mL.

And the MIC [29]?
Its MIC is at most 8 µg/mL.

And the MIC50 [29]?
The MIC50 was at most 8 µg/mL.

And the MIC90 [29]?
Its MIC90 is at most 8 µg/mL.

And the Activity [30]?
The Activity was 6.5%.

And the MIC50 [31]?
The MIC50 was at most 8 µg/mL.

What about the MIC90 [31] of the same molecule?
Its MIC90 is over 32 µg/mL.

What about the MIC [32] of the same molecule?
The MIC was at most 8 µg/mL.

And the MIC50 [32]?
Its MIC50 is at most 8 µg/mL.

And the MIC90 [32]?
Its MIC90 is at most 8 µg/mL.

And the Activity [33]?
Its Activity is 81.2%.

And the MIC50 [34]?
Its MIC50 is at most 8 µg/mL.

What about the MIC90 [34] of the same molecule?
The MIC90 was at most 8 µg/mL.

What about the MIC50 [35] of the same molecule?
Its MIC50 is at most 8 µg/mL.

And the MIC90 [35]?
Its MIC90 is over 32 µg/mL.

What about the Activity [36] of the same molecule?
Its Activity is 84.2%.

What about the MIC50 [37] of the same molecule?
The MIC50 was at most 8 µg/mL.

And the MIC90 [37]?
Its MIC90 is over 32 µg/mL.

And the Activity [38]?
Its Activity is 15.8%.

What about the Activity [39] of the same molecule?
Its Activity is 84.2%.

And the MIC [40]?
Its MIC is at most 8 µg/mL.

And the MIC50 [40]?
The MIC50 was at most 8 µg/mL.

And the MIC90 [40]?
Its MIC90 is at most 8 µg/mL.

And the MIC50 [41]?
The MIC50 was at most 8 µg/mL.

What about the MIC90 [41] of the same molecule?
Its MIC90 is over 32 µg/mL.

What about the Activity [42] of the same molecule?
The Activity was 100%.

And the Activity [43]?
Its Activity is 81.2%.

And the Activity [44]?
The Activity was 5%.

And the MIC50 [45]?
The MIC50 was at most 8 µg/mL.

And the MIC90 [45]?
The MIC90 was over 32 µg/mL.

What about the MIC50 [46] of the same molecule?
Its MIC50 is at most 8 µg/mL.

What about the MIC90 [46] of the same molecule?
The MIC90 was at most 8 µg/mL.

What about the Activity [47] of the same molecule?
Its Activity is 97%.

And the Activity [48]?
The Activity was 18.8%.

And the MIC50 [49]?
Its MIC50 is at most 8 µg/mL.

And the MIC90 [49]?
The MIC90 was over 32 µg/mL.

And the MIC50 [50]?
The MIC50 was at most 8 µg/mL.

And the MIC90 [50]?
Its MIC90 is over 32 µg/mL.

And the MIC50 [51]?
Its MIC50 is at most 8 µg/mL.

And the MIC90 [51]?
The MIC90 was over 32 µg/mL.
